This is an account of results in patent US20250205344A1, “2,4-DIOXOTETRAHYDROPYRIMIDINYL DERATIVES AS DEGRONS IN PROTACS” (GLAXOSMITHKLINE INTELLECTUAL PROPERTY DEVELOPMENT LIMITED, priority 2022, published 2025).

Where a name gives a salt, the structure may show the parent alone. Where only a bound is given, the exact number is not on record here.

In this assay the target is T1, Androgen Receptor (Homo sapiens, UniProt P10275, T878A).
T1 construct: the AR gene was modified, using CRISPR/Cas9 editing, so the expressed AR protein included an 11 amino acid HiBiT tag; endogenous in cells; host or cells: clonal LnCaP-derived line, AR gene edited by CRISPR/Cas9
T1 sequence (P10275 whole entry T878A): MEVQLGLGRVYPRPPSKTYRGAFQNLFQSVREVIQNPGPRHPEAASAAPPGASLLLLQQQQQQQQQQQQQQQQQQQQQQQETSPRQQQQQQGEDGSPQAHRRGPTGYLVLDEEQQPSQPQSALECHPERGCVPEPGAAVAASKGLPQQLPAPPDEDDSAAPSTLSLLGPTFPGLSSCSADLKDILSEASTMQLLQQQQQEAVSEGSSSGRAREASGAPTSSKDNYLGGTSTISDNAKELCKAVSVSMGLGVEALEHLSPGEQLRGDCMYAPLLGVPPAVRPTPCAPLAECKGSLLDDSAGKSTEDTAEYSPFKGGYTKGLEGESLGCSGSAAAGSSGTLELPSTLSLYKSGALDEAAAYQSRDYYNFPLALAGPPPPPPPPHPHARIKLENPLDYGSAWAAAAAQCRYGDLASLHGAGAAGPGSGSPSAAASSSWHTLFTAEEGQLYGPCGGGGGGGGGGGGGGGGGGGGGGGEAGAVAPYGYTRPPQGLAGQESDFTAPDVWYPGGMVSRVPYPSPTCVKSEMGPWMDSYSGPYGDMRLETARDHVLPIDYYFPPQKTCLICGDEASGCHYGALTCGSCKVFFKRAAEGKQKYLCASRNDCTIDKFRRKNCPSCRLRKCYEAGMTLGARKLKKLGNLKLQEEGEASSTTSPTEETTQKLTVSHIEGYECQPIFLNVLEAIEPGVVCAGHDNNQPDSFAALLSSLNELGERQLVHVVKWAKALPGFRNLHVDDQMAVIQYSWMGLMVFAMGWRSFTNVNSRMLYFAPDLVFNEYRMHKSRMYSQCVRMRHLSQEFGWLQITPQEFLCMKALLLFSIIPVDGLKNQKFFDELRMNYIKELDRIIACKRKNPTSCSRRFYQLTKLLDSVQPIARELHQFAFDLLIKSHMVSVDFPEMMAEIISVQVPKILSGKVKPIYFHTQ
T1 sequence (Q96SW2 whole entry partner): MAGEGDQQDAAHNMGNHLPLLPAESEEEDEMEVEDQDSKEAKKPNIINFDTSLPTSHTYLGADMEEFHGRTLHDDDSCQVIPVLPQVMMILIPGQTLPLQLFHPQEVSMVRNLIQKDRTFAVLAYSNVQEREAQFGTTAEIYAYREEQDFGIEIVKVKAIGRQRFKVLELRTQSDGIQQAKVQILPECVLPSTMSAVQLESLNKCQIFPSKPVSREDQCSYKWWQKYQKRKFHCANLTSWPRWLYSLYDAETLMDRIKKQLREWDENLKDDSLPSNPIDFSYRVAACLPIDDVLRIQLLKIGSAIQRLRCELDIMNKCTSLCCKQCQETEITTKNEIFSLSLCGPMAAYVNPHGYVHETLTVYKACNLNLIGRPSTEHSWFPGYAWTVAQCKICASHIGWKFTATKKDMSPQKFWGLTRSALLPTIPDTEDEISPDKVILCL
T1 sequence (Q16531 whole entry partner): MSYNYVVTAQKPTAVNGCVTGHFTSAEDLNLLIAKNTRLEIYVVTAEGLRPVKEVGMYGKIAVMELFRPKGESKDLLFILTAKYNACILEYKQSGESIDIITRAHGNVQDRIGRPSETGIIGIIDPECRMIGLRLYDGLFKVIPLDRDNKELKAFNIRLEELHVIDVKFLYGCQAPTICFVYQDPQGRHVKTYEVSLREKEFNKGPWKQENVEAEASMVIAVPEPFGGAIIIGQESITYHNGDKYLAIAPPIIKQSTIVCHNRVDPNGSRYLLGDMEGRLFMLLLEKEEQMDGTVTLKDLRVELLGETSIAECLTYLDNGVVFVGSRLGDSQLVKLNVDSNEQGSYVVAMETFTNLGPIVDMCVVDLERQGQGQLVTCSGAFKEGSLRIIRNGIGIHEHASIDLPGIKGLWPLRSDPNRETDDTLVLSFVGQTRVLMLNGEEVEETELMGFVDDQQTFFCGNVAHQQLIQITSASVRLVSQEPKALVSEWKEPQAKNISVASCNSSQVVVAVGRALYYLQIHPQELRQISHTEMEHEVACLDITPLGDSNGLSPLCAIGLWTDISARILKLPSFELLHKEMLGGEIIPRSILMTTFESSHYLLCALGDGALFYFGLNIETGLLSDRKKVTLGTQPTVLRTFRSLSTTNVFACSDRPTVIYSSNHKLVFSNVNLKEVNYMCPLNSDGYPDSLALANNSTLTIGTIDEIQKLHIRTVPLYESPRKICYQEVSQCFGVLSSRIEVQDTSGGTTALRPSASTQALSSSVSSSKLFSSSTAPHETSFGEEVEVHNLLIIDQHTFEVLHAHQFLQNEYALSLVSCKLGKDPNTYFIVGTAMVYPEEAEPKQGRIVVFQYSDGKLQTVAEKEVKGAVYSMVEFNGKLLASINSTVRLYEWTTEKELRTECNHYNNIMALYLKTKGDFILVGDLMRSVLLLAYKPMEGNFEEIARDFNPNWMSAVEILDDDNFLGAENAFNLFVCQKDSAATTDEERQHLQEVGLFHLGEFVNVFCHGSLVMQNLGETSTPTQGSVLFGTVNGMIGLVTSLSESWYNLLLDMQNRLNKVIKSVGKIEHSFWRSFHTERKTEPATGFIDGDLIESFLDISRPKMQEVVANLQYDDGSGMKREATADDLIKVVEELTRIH
In words: Androgen Receptor Degradation Assay (Nano-Glo HiBiT). It counts as cell-based. The following applies: LNCaP, 18 h, HiBiT-tagged AR in human LnCaP cells, read-out: mean asymptote max. In outline: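 LnCaP cells with CRISPR-knocked-in N-terminal HiBiT-tagged AR (10,000/well) treated 18 h at 37 °C with PROTACs over 11 threefold concentrations; lytic HiBiT luminescence normalised to DMSO (0%) and cell-free (100%) controls. Relative DC50 = 4-parameter fit inflection; absolute DC50 = 50% degradation interpolation; Dmax = maximum observed degradation.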
(With HiBiT, luminescence reflects the tagged protein that the partner subunit can reach.)

For `N#Cc1ccc(O[C@H]2CC[C@H](NC(=O)c3ccc(N4CC[C@@H](CN5CCC(n6ncc7c(N8CCC(=O)NC8=O)cccc76)CC5)C4)nn3)CC2)cc1Cl` [EAR239, N-((1r,4R)-4-(3-chloro-4-cyanophenoxy)cyclohexyl)-6-((S)-3-((4-(4-(2,4-dioxotetrahydropyrimidin-1(2H)-yl)-1H-indazol-1-yl)piperidin-1-yl)methyl)pyrrolidin-1-yl)pyridazine-3-carboxamide], the Dmax is at least 50%.

Consider `N#Cc1ccc(O[C@H]2CC[C@H](NC(=O)c3cnc(N4CCC(CN5CCC(n6ccc7c(N8CCC(=O)NC8=O)ncnc76)CC5)CC4)nc3)CC2)cc1Cl` [EAR200, N-((1r,4r)-4-(3-Chloro-4-cyanophenoxy)cyclohexyl)-2-(4-((4-(4-(2,4-dioxotetrahydropyrimidin-1(2H)-yl)-7H-pyrrolo[2,3-d]pyrimidin-7-yl)piperidin-1-yl)methyl)piperidin-1-yl)pyrimidine-5-carboxamide hydrochloride], for which the Dmax was at least 50%.

As to `C[C@@H]1CN(C(=O)Nc2cnc(N3CCC(CN4CCC(n5ccc6c(N7CCC(=O)NC7=O)cccc65)CC4)CC3)nc2)[C@@H](C)CN1c1ccc(C#N)c(Cl)c1` (racemic) [EAR114, rac-(trans)-4-(3-Chloro-4-cyanophenyl)-N-(2-(4-((4-(4-(2,4-dioxotetrahydropyrimidin-1(2H)-yl)-1H-indol-1-yl)piperidin-1-yl)methyl)piperidin-1-yl)pyrimidin-5-yl)-2,5-dimethylpiperazine-1-carboxamide], the Dmax is at least 50%.

For the compound `N#Cc1ccc(O[C@H]2CC[C@H](NC(=O)c3ccc(N4C5CCC4CC(CN4CCC(n6ncc7c(N8CCC(=O)NC8=O)cccc76)CC4)C5)nn3)CC2)cc1Cl` (stereo partly shown) [EAR230, N-((1r,4r)-4-(3-chloro-4-cyanophenoxy)cyclohexyl)-6-(3-((4-(4-(2,4-dioxotetrahydropyrimidin-1(2H)-yl)-1H-indazol-1-yl)piperidin-1-yl)methyl)-8-azabicyclo[3.2.1]octan-8-yl)pyridazine-3-carboxamide], the Dmax is at least 50%.

As to `CC(C)n1ccc2c(N3CCC(=O)NC3=O)cc(C(=O)N3CCN(CC4CCN(c5ncc(NC(=O)N6C[C@H](C)N(c7ccc(C#N)c(Cl)c7)C[C@H]6C)cn5)CC4)CC3)cc21` [EAR107, (2R,5S)-4-(3-Chloro-4-cyanophenyl)-N-(2-(4-((4-(4-(2,4-dioxotetrahydropyrimidin-1(2H)-yl)-1-isopropyl-1H-indole-6-carbonyl)piperazin-1-yl)methyl)piperidin-1-yl)pyrimidin-5-yl)-2,5-dimethylpiperazine-1-carboxamide], the Dmax is at least 50%.

`CC1(C)C(=O)N(c2ccc(C#N)c(C(F)(F)F)c2)C(=S)N1c1ccc(N2CCC(CN3CCC(n4ccc5c(N6CCC(=O)NC6=O)cncc54)CC3)CC2)cc1` [EAR101, 4-(3-(4-(4-((4-(4-(2,4-Dioxotetrahydropyrimidin-1(2H)-yl)-1H-pyrrolo[2,3-c]pyridin-1-yl)piperidin-1-yl)methyl)piperidin-1-yl)phenyl)-4,4-dimethyl-5-oxo-2-thioxoimidazolidin-1-yl)-2-(trifluoromethyl)benzonitrile]: the Dmax was at least 50%.

`CC1(C)[C@H](NC(=O)c2ncc(N3CCC(CN4CCC(n5ncc6c(N7CCC(=O)NC7=O)ccnc65)CC4)CC3)cn2)C(C)(C)[C@H]1Oc1ccc(C#N)c(Cl)c1` [EAR272, N-((1r,3r)-3-(3-Chloro-4-cyanophenoxy)-2,2,4,4-tetramethylcyclobutyl)-5-(4-((4-(4-(2,4-dioxotetrahydropyrimidin-1(2H)-yl)-1H-pyrazolo[3,4-b]pyridin-1-yl)piperidin-1-yl)methyl)piperidin-1-yl)pyrimidine-2-carboxamide]: the Dmax was at least 50%.

On to `N#Cc1ccc(O[C@H]2CC[C@H](NC(=O)c3ccc(N4CCC(CN5CCC(n6ncc7c(N8CCC(=O)NC8=O)cncc76)CC5)CC4)nn3)CC2)cc1Cl` [EAR53, N-((1r,4r)-4-(3-Chloro-4-cyanophenoxy)cyclohexyl)-6-(4-((4-(4-(2,4-dioxotetrahydropyrimidin-1(2H)-yl)-1H-pyrazolo[3,4-c]pyridin-1-yl)piperidin-1-yl)methyl)piperidin-1-yl)pyridazine-3-carboxamide hydrochloride], for which the Dmax was at least 50%.

As for `N#Cc1ccc(O[C@H]2CC[C@H](NC(=O)c3ccc(N4CCC(CN5CCC[C@@H](n6ccc7c(N8CCC(=O)NC8=O)cccc76)C5)CC4)nn3)CC2)cc1Cl` [EAR184, N-((1r,4r)-4-(3-Chloro-4-cyanophenoxy)cyclohexyl)-6-(4-(((S)-3-(4-(2,4-dioxotetrahydropyrimidin-1(2H)-yl)-1H-indol-1-yl)piperidin-1-yl)methyl)piperidin-1-yl)pyridazine-3-carboxamide hydrochloride], the Dmax was at least 50%.

Take `N#Cc1ccc(O[C@H]2CC[C@H](NC(=O)c3ccc(N4CCC(CN5CCC(n6ncc7c(N8CCC(=O)NC8=O)cc(F)cc76)CC5)CC4)nn3)CC2)cc1Cl` [EAR33, N-((1r,4r)-4-(3-Chloro-4-cyanophenoxy)cyclohexyl)-6-(4-((4-(4-(2,4-dioxotetrahydropyrimidin-1(2H)-yl)-6-fluoro-1H-indazol-1-yl)piperidin-1-yl)methyl)piperidin-1-yl)pyridazine-3-carboxamide]: the Dmax is at least 50%.

For `CC1(C)C(=O)N(c2ccc(C#N)c(C(F)(F)F)c2)C(=S)N1c1ccc(N2CCC(CN3CCC(n4ccc5c(N6CCC(=O)NC6=O)cccc54)CC3)CC2)cc1` [EAR99, 4-(3-(4-(4-((4-(4-(2,4-Dioxotetrahydropyrimidin-1(2H)-yl)-1H-indol-1-yl)piperidin-1-yl)methyl)piperidin-1-yl)phenyl)-4,4-dimethyl-5-oxo-2-thioxoimidazolidin-1-yl)-2-(trifluoromethyl)benzonitrile formate], the Dmax was at least 50%.

On to `CC1(C)[C@H](NC(=O)c2ccc(N3CCC(CN4CCC(n5ccc6c(N7CCC(=O)NC7=O)cncc65)CC4)CC3)nn2)C(C)(C)[C@H]1Oc1ccc(C#N)c(Cl)c1` [EAR56, N-((1r,3r)-3-(3-Chloro-4-cyanophenoxy)-2,2,4,4-tetramethylcyclobutyl)-6-(4-((4-(4-(2,4-dioxotetrahydropyrimidin-1(2H)-yl)-1H-pyrrolo[2,3-c]pyridin-1-yl)piperidin-1-yl)methyl)piperidin-1-yl)pyridazine-3-carboxamide], for which the Dmax is at least 50%.

Consider `CC(C)n1ccc2c(N3CCC(=O)NC3=O)cc(C(=O)N(C)C3CCN(CCCCOc4ccc(C(=O)N[C@H]5CC[C@H](Oc6ccc(C#N)c(Cl)c6)CC5)nc4)CC3)cc21` [EAR64, N-(1-(4-((6-(((1r,4r)-4-(3-Chloro-4-cyanophenoxy)cyclohexyl)carbamoyl)pyridin-3-yl)oxy)butyl)piperidin-4-yl)-4-(2,4-dioxotetrahydropyrimidin-1(2H)-yl)-1-isopropyl-N-methyl-1H-indole-6-carboxamide], for which the Dmax is at least 50%.

For `CC1(C)[C@H](NC(=O)c2ncc(N3CCC(CN4CCC(n5ccc6c(N7CCC(=O)NC7=O)ccnc65)CC4)CC3)cn2)C(C)(C)[C@H]1Oc1cnc(C#N)c(Cl)c1` [EAR269, N-((1r,3r)-3-((5-Chloro-6-cyanopyridin-3-yl)oxy)-2,2,4,4-tetramethylcyclobutyl)-5-(4-((4-(4-(2,4-dioxotetrahydropyrimidin-1(2H)-yl)-1H-pyrrolo[2,3-b]pyridin-1-yl)piperidin-1-yl)methyl)piperidin-1-yl)pyrimidine-2-carboxamide], the Dmax was at least 50%.

On to `N#Cc1ccc(O[C@H]2CC[C@H](NC(=O)c3cnc(N4CCC(C(=O)N5CCC(n6ccc7c(N8CCC(=O)NC8=O)cccc76)CC5)CC4)nc3)CC2)cc1Cl` [EAR69, N-((1r,4r)-4-(3-Chloro-4-cyanophenoxy)cyclohexyl)-2-(4-(4-(4-(2,4-dioxotetrahydropyrimidin-1(2H)-yl)-1H-indol-1-yl)piperidine-1-carbonyl)piperidin-1-yl)pyrimidine-5-carboxamide], for which the Dmax is at least 50%.

On to `N#Cc1ccc(O[C@H]2CC[C@H](NC(=O)c3cnc(N4CCC(CN5CCC(n6ncc7c(N8CCC(=O)NC8=O)c(F)ccc76)CC5)CC4)cn3)CC2)cc1C(F)(F)F` [EAR189, N-((1r,4r)-4-(4-Cyano-3-(trifluoromethyl)phenoxy)cyclohexyl)-5-(4-((4-(4-(2,4-dioxotetrahydropyrimidin-1(2H)-yl)-5-fluoro-1H-indazol-1-yl)piperidin-1-yl)methyl)piperidin-1-yl)pyrazine-2-carboxamide hydrochloride], for which the Dmax is at least 50%.

As to `N#Cc1ccc(O[C@H]2CC[C@H](NC(=O)c3ccc(N4CC5CC(C4)C5CN4CCC(n5ncc6c(N7CCC(=O)NC7=O)cccc65)CC4)nn3)CC2)cc1Cl` (stereo partly shown) [EAR228, N-((1r,4r)-4-(3-chloro-4-cyanophenoxy)cyclohexyl)-6-(6-((4-(4-(2,4-dioxotetrahydropyrimidin-1(2H)-yl)-1H-indazol-1-yl)piperidin-1-yl)methyl)-3-azabicyclo[3.1.1]heptan-3-yl)pyridazine-3-carboxamide], the Dmax is at least 50%.

Turning to `N#Cc1ccc(O[C@H]2CC[C@H](NC(=O)c3ccc(N4CCC5(CC4)CC(N4CCC(n6ccc7c(N8CCC(=O)NC8=O)cccc76)CC4)C5)nn3)CC2)cc1Cl` [EAR193, N-((1r,4r)-4-(3-Chloro-4-cyanophenoxy)cyclohexyl)-6-(2-(4-(4-(2,4-dioxotetrahydropyrimidin-1(2H)-yl)-1H-indol-1-yl)piperidin-1-yl)-7-azaspiro[3.5]nonan-7-yl)pyridazine-3-carboxamide], the Dmax was at least 50%.

Turning to `CC1(C)[C@H](NC(=O)c2ccc(N3CCC(CN4CCC(n5ccc6c(N7CCC(=O)NC7=O)cncc65)CC4)CC3)nc2)C(C)(C)[C@H]1Oc1ccc(C#N)c(Cl)c1` [EAR20, N-((1r,3r)-3-(3-Chloro-4-cyanophenoxy)-2,2,4,4-tetramethylcyclobutyl)-6-(4-((4-(4-(2,4-dioxotetrahydropyrimidin-1(2H)-yl)-1H-pyrrolo[2,3-c]pyridin-1-yl)piperidin-1-yl)methyl)piperidin-1-yl)nicotinamide], the Dmax was at least 50%.
